Results on 35 compounds are retold here after a melting point compilation (Tetko et al.; mined from patent text by program, amines drawn as free bases though some values may be those of a salt).

Some results are limits rather than exact numbers.

Regarding `CNc1ccc2cnc(C(=O)c3ccc([N+](=O)[O-])c(C(=O)OC)c3)n2c1`, the melting point (usually the temperature, or range, at which the solid turns liquid) was found to be 183 °C.

Take `CC(C)C[C@H](NC(=O)OCc1ccccc1)C(=O)N[C@@H](Cc1ccccc1)C(=O)COCc1ccco1`: the melting point is 94 to 95 °C.

For `O=C(NC(=O)c1c(F)cccc1Cl)Nc1ccc(S(=O)C(F)(F)C(F)F)cc1F` (stereo not given), the melting point was 213 to 216 °C.

`COc1cc([N+](=O)[O-])c2ncc(C)cc2c1`: the melting point is 173 to 175 °C.

With `O=C(Cn1c(-c2ccc(Br)cc2)nc2cccnc21)NCCN1CCCCC1`, the melting point lay in the range of 178 to 179 °C.

On to `COc1ccc(-c2c3c(cc4ccc(OCc5ccccc5)cc24)C(=O)NC3)cc1`, for which the melting point fell in the range of 213 to 216 °C.

For `CC(C)(O)C(=O)Nc1ccc(Sc2ccc(NS(C)(=O)=O)cc2)cc1Cl`, the melting point fell in the range of 138 to 140 °C.

`COc1c(CCCI)cccc1OCc1coc(/C=C/c2ccccc2)n1` showed a melting point of 103 to 104 °C.

As to `COc1cc2c(cc1OC)-c1c(C#N)sc(=S)n1CC2`, the melting point was 228 °C.

`OCc1cnoc1-c1ccc(-c2ccccc2)cc1` showed a melting point of 108 to 110 °C.

Turning to `CCOC(=O)c1c(N2CCCC2)c2cnc(-c3ccccc3)nc2n(CC)c1=O`, the melting point fell in the range of 149 to 153 °C.

`COc1ccc(Oc2cccc3ncnc(NC(=O)Nc4cccc(Br)c4)c23)cc1`: the melting point lay within 249 to 251 °C.

In turn, `CC(C)(C(=O)O)c1nnc2ccc(NCCCN3CCC(OC(c4ccccc4)c4ccccc4)CC3)nn12` registered a melting point of 155 to 157 °C.

In turn, `Cc1cc(C)c(C)c(-c2cc3cnc(N)nc3nc2NC(=O)NC(C)(C)C)c1C` came in with a melting point greater than 300 °C.

In the case of `CN(C)c1nc2sc3c(NCCN4CCOCC4)ncnc3c2c2c1COC(C)(C)C2`, the melting point was in the range of 195 to 196 °C.

In turn, `CC(C)(C)OC(=O)C(NN)C(=O)O` (stereo not given) came in with a melting point of 144 to 146 °C.

`C=CCc1c(O)cc(O)c(C)c1C(=O)OC` gave a melting point of 72 to 95 °C.

Turning to `CCCCCCCCCCCCCCCCCC(=O)NC(C)C(=O)NC(CCC(=O)NC(C=CCCC(=O)O)C(=O)O)C(=O)O` (stereo not given), the melting point is 200 °C.

Compound `COc1cc2ncnc(N3CCc4cc([N+](=O)[O-])c(Cl)cc43)c2cc1OC` returned a melting point of 276 to 278 °C.

On to `CC(=O)Oc1c(C)c(C)c2c(c1C)C(O)CC(C)(COc1ccc([N+](=O)[O-])cc1)O2` (stereo not given), for which the melting point lay within 139 to 141 °C.

With `CC1(C)CC(=O)c2c(S(C)(=O)=O)sc(C(=O)O)c2C1`, the melting point turned out to be 208 °C.

`CC(C)OCC1(C(F)(F)F)c2cc(C#N)ccc2Nc2ncc(Br)cc21` (stereo not given) registered a melting point of 76 to 77 °C.

Turning to `CNC(=O)c1ccc2c(c1Nc1nc(Nc3ccc4c(c3)CCCC(=O)N4C)ncc1Cl)OCO2`, the melting point was 254 to 256 °C.

For the compound `CC(C)Oc1ccccc1-c1cc(=O)c2cc(C(=O)O)ccc2o1`, the melting point lay within 133 to 135 °C.

The compound `O=C(c1ccc(NS(=O)(=O)c2ccccc2)cc1)N1CCCCc2ccccc21` returned a melting point of 178 to 182 °C.

On to `NP(N)(=O)NC(=O)c1ccc2ccccc2c1`, for which the melting point is greater than 400 °C.

In the case of `O=c1oc2c(O)c(O)ccc2c2ccccc12`, the melting point lay within 254 to 256 °C.

In turn, `CS(=O)c1c(N)nc(N)nc1Cl` (stereo not given) returned a melting point of 126 to 128 °C.

As to `O=C(O)c1cccc(Cc2c(-c3ccc(OC(F)F)c(OC4CC4)c3)[nH]c3cn[nH]c(=O)c23)c1`, the melting point is 155 to 163 °C.

`COc1ccc(C=CCO)cc1OC`: the melting point lay in the range of 70 to 71 °C.

`COc1ccc(C(=O)Nc2ccccc2)cc1Nc1cccc(Cl)c1` yielded a melting point of 168 to 170 °C.

Consider `Cc1nnc(C2CN3CCC2CC3)o1` (stereo not given), for which the melting point was in the range of 147 to 148 °C.

`CC(C)(C)n1nn[nH]c1=S` returned a melting point of 92 to 94 °C.

In turn, `CCCc1noc(-c2ccccc2)c1-c1ccc(S(N)(=O)=O)cc1` had a melting point of 167 °C.

Compound `CC=CCn1c(N(C(C)=O)c2cc(C)cc(C)c2)c(C(C)C)c(=O)[nH]c1=O` had a melting point of 103 to 105 °C.
